Patent publication US20220313620A1, “COMPOSITION FOR PREVENTING AND TREATING TAUOPATHIES” (SERVICIO ANDALUZ DE SALUD, priority 2019, published 2022)

System: Cyclin Dependent Kinase 5 (CDK5)
Assay: Hippocampal CDK5, p35 and p25 protein levels (western blot) after 10 days of oral drinking
Assay type: in vivo, Wistar rats
Details: oral by drinking 100 mg/Kg for 10 days, hippocampus, FIG. 8A
Protocol: Animal experimental procedures were carried out in accordance with the European Communities directive 2010/63/EU and Spanish legislation (Real Decreto 53/2013). The protocol was approved by the Research and approved by Ethics Committee for Animal Experiments of the University of Malaga, Spain. In accordance with the ARRIVE guidelines, all efforts were made to minimize animal suffering and to reduce the number of animals used per experimental group. Chronic drinking experiments on Wistar rats were performed on 20 male rats. All adult rats, ageing 2 months (≈300 g of body weight), were provided by Charles River Laboratories (Barcelona, Spain). The animals were housed individually under a standard 12 h light-dark cycle in a room with temperature and humidity control. Water and rat chow pellets were provided ad libitum throughout the course of the present study.
Caromax®-D-Pinitol (3-O-methyl-d-chiro-inositol, DPIN, 98% purity) and Caromax®-D-Chiro-inositol (cis-1,2,3-trans-3,5,6-cyclohexanehexol, DCI) were provided by Euronutra SL (Málaga, Spain). They were dissolved in water to orally daily administration by drinking and/or gavage at dose of 100 mg/Kg of body weight (BW) in a 1 ml/kg of BW volume to Zucker and Wistar rats for 4 weeks (28 days) and 10 days, respectively (FIG. 1). During the drinking treatments, the concentration of inositols in the water were updated considering the daily increase of BW of the rats and the possible loss of water by evaporation.
Brain extract. […]
Western Blot Analysis. […] Bands were quantified by densitometric analysis using ImageJ software (Rasband, WS, ImageJ, US National Institutes of Health, Bethesda, Md., USA). […] The results were expressed as the protein/α-Adaptin ratio or phosphorylated/total protein ratio and normalized to the control group (Y axis represents ‘fold mean of the control values’).
All data are expressed as mean±SEM. […]

## COC1[C@@H](O)[C@@H](O)C(O)[C@H](O)[C@H]1O (stereo partly drawn) [DPIN, (1S,2S,4S,5R)-6-methoxycyclohexane-1,2,3,4,5-pentol]
  amount of p25: significantly decreased
  amount of p35 subunit: significantly decreased
  total amount of CDK5: does not vary
